Results reported in US20090124553A1, “Suppression of inflammation associated with transplantation using an epsilon PKC inhibitor” (priority 2007, published 2009).

Tests used:
[1] = system: cardiac allografts; test: Heterotopic cardiac allograft transplantation in mice: graft beating score, toxicity, body weight; assay type: in vivo
Method: In studies performed in support of the present methods, hearts of FVB mice (H-2^q) were transplanted into C57BL/6 mice (H-2^b) to provide an animal model for allograft transplantation. Following transplantation, an isozyme-specific εPKC inhibitor was administered to the transplant recipients. The particular inhibitor was TAT47-57-εV1-2 (i.e., εV1-2), which is described herein.
The εPKC-specific inhibitor, εV1-2, or the carrier/control peptide, TAT, was administered to the recipient animals using osmotic pumps to provide continuous treatment from day 3 following allograft transplantation until sacrifice on day 30. All animals were given 20 mg/kg/day of cyclosporine A (CyA) to ensure survival.
Male […] (H-2^q) and C57BL/6J (H-2^b) mice, 6-8 weeks old, were purchased from Jackson Laboratory (Bar Harbor, Me.) and housed at the animal facility at Stanford University Medical Center (Stanford, Calif.). The εVB mice were used as allograft donors and the C57BL/6J mice were used as recipients. […]
Allograft recipient mice were monitored daily. Graft viability was assessed by direct abdominal palpation of the heterotopically transplanted hearts and expressed as beating score, assessed by the Stanford cardiac surgery lab graft scoring system (Tanaka, M. et al. (2004) Circulation 110:II194-9).

[2] = biological target: T1, εPKC (Rattus norvegicus, UniProt P09216); conditions: from cited literature; cited from earlier work
T1 sequence (P09216 1-737): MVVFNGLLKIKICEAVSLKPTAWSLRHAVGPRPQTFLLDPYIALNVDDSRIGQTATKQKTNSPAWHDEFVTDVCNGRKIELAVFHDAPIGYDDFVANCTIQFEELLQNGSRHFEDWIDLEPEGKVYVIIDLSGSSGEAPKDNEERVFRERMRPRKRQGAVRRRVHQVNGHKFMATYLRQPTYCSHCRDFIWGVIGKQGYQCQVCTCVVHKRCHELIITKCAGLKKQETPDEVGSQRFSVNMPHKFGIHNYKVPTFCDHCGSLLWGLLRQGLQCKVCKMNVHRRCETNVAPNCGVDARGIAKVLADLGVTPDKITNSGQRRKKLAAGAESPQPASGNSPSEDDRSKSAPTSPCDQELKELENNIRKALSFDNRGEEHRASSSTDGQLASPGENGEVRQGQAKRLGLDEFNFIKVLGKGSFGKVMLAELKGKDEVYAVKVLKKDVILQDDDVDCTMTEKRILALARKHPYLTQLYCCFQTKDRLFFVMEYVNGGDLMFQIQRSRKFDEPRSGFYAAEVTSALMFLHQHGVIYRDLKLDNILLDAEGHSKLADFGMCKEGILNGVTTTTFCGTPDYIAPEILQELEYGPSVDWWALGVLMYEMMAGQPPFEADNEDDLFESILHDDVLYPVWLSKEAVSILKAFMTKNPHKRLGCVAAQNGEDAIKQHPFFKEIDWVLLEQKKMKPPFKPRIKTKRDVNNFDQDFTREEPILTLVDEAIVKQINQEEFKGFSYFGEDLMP

Q: For CC(C)C[C@H](NC(=O)[C@H](CO)NC(=O)[C@@H](NC(=O)[C@H](C)NC(=O)[C@H](CCC(=O)O)NC(=O)[C@@H](N)CSSC[C@H](N)C(=O)N[C@@H](Cc1ccc(O)cc1)C(=O)NCC(=O)N[C@@H](CCCNC(=N)N)C(=O)N[C@@H](CCCCN)C(=O)N[C@@H](CCCCN)C(=O)N[C@@H](CCCNC(=N)N)C(=O)N[C@@H](CCCNC(=N)N)C(=O)N[C@@H](CCC(N)=O)C(=O)N[C@@H](CCCNC(=N)N)C(=O)N[C@@H](CCCNC(=N)N)C(=O)N[C@@H](CCCNC(=N)N)C(=O)O)C(C)C)C(=O)N[C@@H](CCCCN)C(=O)N1CCC[C@H]1C(=O)N[C@H](C(=O)O)[C@@H](C)O [εV1-2], which toxic effects ([1]; allograft recipient mice treated day 3-30, compared to TAT-treated group) is on record?
A: did not demonstrate toxic effects

Q: And the body weight ([1]; allograft recipient mice, Mean±SEM)?
A: 21.7 ± 0.9 g

Q: With “ψεRACK: peptide HDAPIGYD (εPKC 85-92; SEQ ID NO: 9), εPKC-selective agonist” as the compound, how does the “function on εPKC (agonist / antagonist)” value [2] read?
A: functioned as a εPKC-selective agonist

Q: For HNAPIGYD, which “function on εPKC (agonist / antagonist)” value [2] is on record?
A: functioned as a εPKC antatgonist/inhibitor
